The target of the assay is T1, StSUT4 (Solanum tuberosum, UniProt Q9FV92).
T1 construct: gene SUT4; StSUT4 cDNA in pDR196, expressed in yeast cells
T1 sequence (Q9FV92 1-500): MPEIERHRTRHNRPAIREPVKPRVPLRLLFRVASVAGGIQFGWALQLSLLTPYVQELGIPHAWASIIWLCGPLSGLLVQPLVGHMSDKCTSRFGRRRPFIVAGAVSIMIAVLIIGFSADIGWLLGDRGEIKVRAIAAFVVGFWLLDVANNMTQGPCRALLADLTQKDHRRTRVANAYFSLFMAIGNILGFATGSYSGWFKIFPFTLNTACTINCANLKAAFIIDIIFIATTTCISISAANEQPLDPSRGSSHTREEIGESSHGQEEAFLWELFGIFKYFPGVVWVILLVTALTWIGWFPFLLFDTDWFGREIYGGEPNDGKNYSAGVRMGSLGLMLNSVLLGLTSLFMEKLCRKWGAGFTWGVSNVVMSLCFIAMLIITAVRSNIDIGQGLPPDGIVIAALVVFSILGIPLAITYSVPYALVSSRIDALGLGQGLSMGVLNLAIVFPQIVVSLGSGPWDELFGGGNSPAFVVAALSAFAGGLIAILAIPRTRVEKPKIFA
Description: competition with esculin uptake in yeast, fluorescence. Type of assay: cell-based. To be noted: 8 mM esculin, pH 5.0, 20 mM unlabelled sucrose.

Regarding `OC[C@H]1O[C@@](CO)(O[C@H]2O[C@H](CO)[C@@H](O)[C@H](O)[C@H]2O)[C@@H](O)[C@@H]1O` [sucrose], the “% inhibition at 20 mM” value is reported as “~ almost 50%”.

Source of the values: article PMC9730799, “Elucidation of the interactome of the sucrose transporter StSUT4: sucrose transport is connected to ethylene and calcium signalling” (Journal of Experimental Botany, 2022).
